Patent US9751854B2 (Millennium Pharmaceuticals, Inc., priority 2014, dated 2017)

Target: human VPS34 (Homo sapiens (Human), UniProt Q8NEB9)
Experiment: Human VPS34 enzyme assay (Adapta TR-FRET ADP detection)
Type: biochemical
Conditions: IC50 range class
Method: Human VPS34 Enzyme Assay Method
100 nL compounds in DMSO are added to wells of a 384 well microtitre plate (Greiner 780076). At room temperature: 5 ul VPS34 reaction buffer (Invitrogen Assay Buffer Q (diluted 1 in 5 with nanopure water) plus 2 mM DTT and 2 mM MnCl2) containing ATP (20 uM, Promega) and 200 uM PI-PS substrate (Invitrogen PV5122) is added followed immediately by 5 ul VPS34 reaction buffer (as above) containing VPS34 (5 nM, Millennium Protein Sciences Group) and the mixture is incubated with shaking at room temperature for 1 hour. Then 5 ul VPS34 stop-detect mix (as per Invitrogen Adapta Assay kit (PV5009) instructions (contains kinase quench buffer, TR-FRET buffer, Adapta Eu anti-ADP antibody and Alexa Fluor 647 ADP tracer)) is added to quench the reaction. The plates are then incubated for 30 minutes at room temperature with shaking and then read on a BMG PheraStar Plus reader.
For the assay methods described above, test compound percent inhibition, at various concentrations, is calculated relative to control (DMSO and EDTA) treated samples. Compound concentration versus percent inhibition curves are fitted to generate IC50 values.

Sequence of human VPS34 (Q8NEB9 whole entry): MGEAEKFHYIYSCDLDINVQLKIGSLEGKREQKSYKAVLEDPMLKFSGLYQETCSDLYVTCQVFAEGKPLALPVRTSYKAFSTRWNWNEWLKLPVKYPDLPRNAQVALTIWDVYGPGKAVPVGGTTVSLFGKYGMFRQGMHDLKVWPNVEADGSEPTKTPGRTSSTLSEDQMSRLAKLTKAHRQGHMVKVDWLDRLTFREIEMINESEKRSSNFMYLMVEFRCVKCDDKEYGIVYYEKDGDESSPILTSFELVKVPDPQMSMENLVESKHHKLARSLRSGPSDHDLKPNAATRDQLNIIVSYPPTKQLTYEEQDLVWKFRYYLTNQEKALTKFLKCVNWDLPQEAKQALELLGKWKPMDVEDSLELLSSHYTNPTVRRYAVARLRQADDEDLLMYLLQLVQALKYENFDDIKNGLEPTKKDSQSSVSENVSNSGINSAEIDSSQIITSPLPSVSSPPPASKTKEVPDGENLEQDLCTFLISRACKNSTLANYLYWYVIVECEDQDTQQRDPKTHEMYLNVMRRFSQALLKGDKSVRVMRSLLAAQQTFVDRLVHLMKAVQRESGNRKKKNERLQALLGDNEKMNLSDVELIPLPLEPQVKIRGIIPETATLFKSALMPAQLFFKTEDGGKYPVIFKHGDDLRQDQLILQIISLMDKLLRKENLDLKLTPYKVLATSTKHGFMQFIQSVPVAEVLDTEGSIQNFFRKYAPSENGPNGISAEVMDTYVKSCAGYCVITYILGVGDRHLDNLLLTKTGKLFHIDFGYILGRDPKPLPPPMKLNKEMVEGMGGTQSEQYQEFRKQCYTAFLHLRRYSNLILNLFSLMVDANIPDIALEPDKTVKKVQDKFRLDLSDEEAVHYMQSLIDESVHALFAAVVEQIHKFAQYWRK

CC(=O)Nc1cc(-c2cnc(N)c(C(=O)Nc3ccccc3Cl)c2)ccn1 [Compound I-136, 2′-acetamido-6-amino-N-(2-chlorophenyl)-3,4′-bipyridine-5-carboxamide]
IC50: < 10 nM

CC(=O)Nc1cc(-c2cnc(C)c(NS(=O)(=O)c3cccc(C(F)(F)F)c3)c2)ccn1 [Compound I-168, N-[6-methyl-5-({[3-(trifluoromethyl)phenyl]sulfonyl}amino)-3,4′-bipyridin-2′-yl]acetamide]
IC50: < 10 nM

CC(=O)Nc1cc(-c2cnc(C)c(N(CCO)S(=O)(=O)c3ccc(F)cc3F)c2)ccn1 [Compound I-319, N-(5-{[(2,4-difluorophenyl)sulfonyl](2-hydroxyethyl)amino}-6-methyl-3,4′-bipyridin-2′-yl]acetamide]
IC50: > 100 nM

Cc1nccc(Nc2cc(-c3cnc(Cl)c(C(=O)N4CCC4)c3)ccn2)n1 [Compound I-232, azetidin-1-yl[6-chloro-2′-[(2-methylpyrimidin-4-yl)amino]-3,4′-bipyridin-5-yl}methanone]
IC50: 10 to 50 nM

CC(=O)Nc1cc(-c2cnc(N)c(S(=O)(=O)Cc3ccc4ccccc4c3)c2)ccn1 [Compound I-3, N-{6-amino-5-[(2-naphthylmethyl)sulfonyl]-3,4′-bipyridin-2′-yl}acetamide]
IC50: 50 to 100 nM

CC(=O)Nc1cc(-c2cnc3c(c2)N(CC2CC2)S(=O)(=O)N3)ccn1 [Compound I-29, N-{4-[1-(cyclopropylmethyl)-2,2-dioxido-1,3-dihydro[1,2,5]thiadiazolo[3,4-b]pyridin-6-yl]pyridin-2-yl}acetamide]
IC50: 10 to 50 nM

CCN(c1cc(-c2ccnc(NC(C)=O)c2)cnc1C)S(=O)(=O)C1CC1 [Compound I-26, N-{5-[(cyclopropylsulfonyl)(ethyl)amino]-6-methyl-3,4′-bipyridin-2′-yl}acetamide]
IC50: 50 to 100 nM

CC(=O)Nc1cc(-c2cnc(Cl)c(NS(=O)(=O)c3ccc(Cl)cc3Cl)c2C)ccn1 [Compound I-243, N-(6-chloro-5-{[(2,4-dichlorophenyl)sulfonyl]amino}-4-methyl-3,4′-bipyridin-2′-yl)acetamide]
IC50: 10 to 50 nM

CC(=O)Nc1cc(-c2cnc3[nH]ncc3c2)ccn1 [Compound I-189, N-[4-(1H-pyrazolo[3,4-b]pyridin-5-yl)pyridin-2-yl]acetamide]
IC50: 50 to 100 nM

COc1ncc(-c2ccnc(NC(C)=O)c2)c(C)c1NS(=O)(=O)N(C)C [Compound I-268, N-{5-[(dimethylsulfamoyl)amino]-6-methoxy-4-methyl-3,4′-bipyridin-2′-yl}acetamide]
IC50: > 100 nM

CC(=O)Nc1cc(-c2cnc(N)c(C(=O)NCC3CC3)c2)ccn1 [Compound I-14, 2′-acetamido-6-amino-N-(cyclopropylmethyl)-3,4′-bipyridine-5-carboxamide]
IC50: 10 to 50 nM

CC(=O)Nc1cc(-c2cncc(Nc3ncco3)c2)ccn1 [Compound I-472, N-[5-(1,3-oxazol-2-ylamino)-3,4′-bipyridin-2′-yl]acetamide]
IC50: > 100 nM

COc1ncc(-c2ccnc(NC(C)=O)c2)cc1S(=O)(=O)Nc1cccc(C(F)(F)F)c1 [Compound I-329, N-(6-methoxy-5-{[3-(trifluoromethyl)phenyl]sulfamoyl}-3,4′-bipyridin-2′-yl)acetamide]
IC50: 10 to 50 nM

CC(=O)Nc1cc(-c2cnc(C)c(N(C)C(=O)c3ccc(F)cc3F)c2)ccn1 [Compound I-398, N-(2′-acetamido-6-methyl-3,4′-bipyridin-5-yl)-2,4-difluoro-N-methylbenzamide]
IC50: > 100 nM

Cc1nccc(Nc2cc(-c3cnc(C)c(C(=O)N(C)C45CC(C4)C5)c3)ccn2)n1 [Compound I-275, N-(bicyclo[1.1.1]pent-1-yl)-N,6-dimethyl-2′-[(2-methylpyrimidin-4-yl)amino]-3,4′-bipyridine-5-carboxamide]
IC50: 10 to 50 nM

CCN(CC)C(=O)c1cc(-c2ccnc(NC(C)=O)c2)cnc1N [Compound I-27, 2′-acetamido-6-amino-N,N-diethyl-3,4′-bipyridine-5-carboxamide]
IC50: < 10 nM

CC(=O)Nc1cc(-c2cnc(N)c(C(=O)NC(=N)N)c2)ccn1 [Compound I-409, 2′-acetamido-6-amino-N-carbamimidoyl-3,4′-bipyridine-5-carboxamide]
IC50: > 100 nM

CC(=O)Nc1cc(-c2cnc(C)c(NS(=O)(=O)c3c(F)cccc3F)c2)ccn1 [Compound I-150, N-(5-{[(2,6-difluorophenyl)sulfonyl]amino]-6-methyl-3,4′-bipyridin-2′-yl)acetamide]
IC50: < 10 nM

CC(=O)Nc1cc(-c2cnc(Cl)c(NS(=O)(=O)N3CC4CCC3C4)c2C)ccn1 (centres unmarked) [Compound I-477, N-{5-[(2-azabicyclo[2.2.1]hept-2-ylsulfonyl)amino]-6-chloro-4-methyl-3,4′-bipyridin-2′-yl}acetamide]
IC50: 10 to 50 nM

CC(=O)Nc1cc(-c2cncc(S(=O)(=O)N3CCN(C)CC3)c2)ccn1 [Compound I-481]
IC50: 10 to 50 nM

Cc1ncc(-c2ccnc(NC(=O)C3CC3(F)F)c2)cc1NS(=O)(=O)c1ccc(F)cc1F (single isomer, unassigned) [Compound I-267a, N-(5-{[(2,4-difluorophenyl)sulfonyl]amino}-6-methyl-3,4′-bipyridin-2′-yl)-2,2-difluorocyclopropanecarboxamide]
IC50: 10 to 50 nM

CC(=O)Nc1cc(-c2cnc(Cl)c(N3CCCS3(=O)=O)c2C)ccn1 [Compound I-425, N-[6-chloro-5-(1,1-dioxidoisothiazolidin-2-yl)-4-methyl-3,4′-bipyridin-2′-yl]acetamide]
IC50: 10 to 50 nM

CC(=O)Nc1cc(-c2cnc(C)c(NS(=O)(=O)c3ccc(C(C)C)cc3)c2)ccn1 [Compound I-134, N-(5-{[(4-isopropylphenyl)sulfonyl]amino}-6-methyl-3,4′-bipyridin-2′-yl)acetamide]
IC50: 10 to 50 nM

Cc1c(-c2ccnc(Nc3ccnc(C4CC4)n3)c2)cnc(Cl)c1NS(=O)(=O)N(C)C [Compound I-435, N′-{6-chloro-2′-[(cyclopropylpyrimidin-4-yl)amino]-4-methyl-3,4′-bipyridin-5-yl}-N,N-dimethylsulfuric diamide]
IC50: < 10 nM

CC(=O)Nc1cc(-c2cnc3cn(S(=O)(=O)C4CC4)nc3c2)ccn1 [Compound I-105, N-{4-[2-(cyclopropylsulfonyl)-2H-pyrazolo[4,3-b]pyridin-6-yl]pyridin-2-yl}acetamide]
IC50: > 100 nM

CC(=O)Nc1cc(-c2cnc(N)c(C(=O)N3CC[C@@H](F)C3)c2)ccn1 [Compound I-157, N-[6-amino-5-{[(3R)-3-fluoropyrrolidin-1-yl]carbonyl}-3,4′-bipyridin-2′-yl)acetamide]
IC50: 10 to 50 nM

Cc1ncc(-c2ccnc(N)c2)cc1NS(=O)(=O)N(C)C [Compound I-281, N′-(2′-amino-6-methyl-3,4′-bipyridin-5-yl)-N,N-dimethylsulfuric diamide]
IC50: > 100 nM

CC(=O)Nc1cc(-c2cnc(C)c(NS(=O)(=O)c3cn(C)nc3C(F)(F)F)c2)ccn1 [Compound I-18, N-[6-methyl-5-({[1-methyl-3-(trifluoromethyl)-1H-pyrazol-4-yl]sulfonyl}amino)-3,4′-bipyridin-2′-yl]acetamide]
IC50: < 10 nM

CC(=O)Nc1cc(-c2cnc3[nH]c(C)nc3c2)ccn1 [Compound I-66, N-[4-(2-methyl-3H-imidazo[4,5-b]pyridin-6-yl)pyridin-2-yl]acetamide]
IC50: > 100 nM

Cc1c(-c2ccnc(Nc3ccnc(C4CC4)n3)c2)cnc(Cl)c1N [Compound I-355, 6-chloro-N-2-′-(2-cyclopropylpyrimidin-4-yl)-4-methyl-3,4′-bipyridine-2′,5-diamine]
IC50: 10 to 50 nM

CC(=O)Nc1cc(-c2cnc(C)c(NS(=O)(=O)c3ccc(F)cc3F)c2C)ccn1 [Compound I-247, N-(5-{[(2,4-difluorophenyl)sulfonyl]amino}-4,6-dimethyl-3,4′-bipyridin-2′-yl)acetamide]
IC50: 10 to 50 nM

CCCCS(=O)(=O)Nc1cc(-c2ccnc(NC(C)=O)c2)cnc1C [Compound I-373, N-{5-[(butylsulfonyl)amino]-6-methyl-3,4′-bipyridin-2′-yl}acetamide]
IC50: 10 to 50 nM

CC(=O)Nc1cc(-c2cnc(N(C)C)c(S(=O)(=O)NC(C)(C)C)c2C)ccn1 [Compound I-487, N-[5-(tert-butylsulfamoyl)-6-(dimethylamino)-4-methyl-3,4′-bipyridin-2′-yl]acetamide]
IC50: > 100 nM

CC(=O)Nc1cc(-c2cnc(C)c(NS(=O)(=O)c3cc(Cl)ccc3Cl)c2)ccn1 [Compound I-111, N-(5-{[(2,5-dichlorophenyl)sulfonyl]amino}-6-methyl-3,4′-bipyridin-2′-yl)acetamide]
IC50: < 10 nM

CC(=O)Nc1cc(-c2cnc(N)c(C(=O)N3Cc4ccccc4C3)c2)ccn1 [Compound I-125]
IC50: < 10 nM

CC(=O)Nc1cc(-c2cnc(C)c(NS(=O)(=O)CC(F)F)c2)ccn1 [Compound I-412, N-(5-{[(2,2-difluoroethyl)sulfonyl]amino}-6-methyl-3,4′-bipyridin-2′-yl)acetamide]
IC50: 10 to 50 nM

Cc1cnc(NC(=O)C2CC2)cc1-c1cnc(C)c(NS(=O)(=O)c2ccc(F)cc2F)c1 [Compound I-4, N-(5-{[(2,4-difluorophenyl)sulfonyl]amino}-5′,6-dimethyl-3,4′-bipyridin-2′-yl)cyclopropanecarboxamide]
IC50: 10 to 50 nM

Cc1c(-c2ccnc(Nc3ccnc(-c4ccccc4)n3)c2)cnc(Cl)c1NS(=O)(=O)c1ccc(F)cc1F [Compound I-264, N-{6-chloro-4-methyl-2′-[(2-phenylpyrimidin-4-yl)amino]-3,4′-bipyridin-5-yl}-2,4-difluorobenzenesulfonamide]
IC50: < 10 nM

CC(=O)Nc1cc(-c2cnc3c(c2)S(=O)(=O)NCCO3)ccn1 [Compound I-484, N-(4-(1,1-dioxido-3,4-dihydro-2H-pyrido[2,3-b][1,4,5]oxathiazepin-8-yl)pyridin-2-yl)acetamide]
IC50: 50 to 100 nM

CNS(=O)(=O)c1cc(-c2ccnc(NC(C)=O)c2)cnc1N [Compound I-89, N-[6-amino-5-(methylsulfamoyl)-3,4′-bipyridin-2′-yl]acetamide]
IC50: 10 to 50 nM

CC(=O)Nc1cc(-c2cnc(C)c(NS(=O)(=O)c3ccc(F)c(F)c3)c2)ccn1 [Compound I-59, N-(5-{[(3,4-difluorophenyl)sulfonyl]amino}-6-methyl-3,4′-bipyridin-2′-yl)acetamide]
IC50: < 10 nM
